Laboratory results reported in ChEMBL document CHEMBL4808180, “Identification of 2,2-Dimethylbutanoic Acid (HST5040), a Clinical Development Candidate for the Treatment of Propionic Acidemia and Methylmalonic Acidemia” (J Med Chem, 2021).
Active and inactive are the calls of the source. The rule behind the calls is not given here.

Assays:
[1] = Reduction of acetyl carnitine in human hepatocytes derived from propionic acidemia patient pretreated for 30 mins followed by 13C-isoleucine addition and measured after 1 hr by MS/MS analysis; format: functional, cell-based; details: hepatocyte
[2] = Reduction of acetyl carnitine in human hepatocytes derived from propionic acidemia patient at 30 uM pretreated for 30 mins followed by 13C-isoleucine addition and measured after 1 hr by MS/MS analysis relative to control; format: functional, Hepatocyte; design: scale not given: the % may be the effect or the level left; details: time 90 min, 1.5 h
[3] = Reduction of acetyl carnitine in human hepatocytes derived from methylmalonic acidemia patient at 30 uM pretreated for 30 mins followed by 13C-isoleucine addition and measured after 1 hr by MS/MS analysis; format: functional, Hepatocyte; design: scale not given: the % may be the effect or the level left; details: time 90 min, 1.5 h
[4] = Reduction of 2-Methylcitric acid in human hepatocytes derived from propionic acidemia patient pretreated for 30 mins followed by 13C-isoleucine addition and measured after 1 hr by MS/MS analysis; format: functional, cell-based; details: hepatocyte
[5] = Reduction of 2-Methylcitric acid in human hepatocytes derived from methylmalonic acidemia patient at 30 uM pretreated for 30 mins followed by 13C-isoleucine addition and measured after 1 hr by MS/MS analysis relative to control; format: functional, Hepatocyte; design: scale not given: the % may be the effect or the level left; details: time 90 min, 1.5 h
[6] = Drug metabolism in human hepatocytes assessed as formation of 2,2-dimethylbutanoic acid-CoA pretreated for 30 mins followed by 13C-isoleucine addition and measured after 1 hr by MS/MS analysis relative to control; format: ADME, cell-based; details: Hepatocyte
[7] = Drug metabolism in Beagle dog hepatocytes assessed as formation of 2,2-dimethylbutanoic acid-CoA incubated for 1 hrs by MS/MS analysis; format: ADME, cell-based; details: Canis lupus familiaris, Hepatocyte
[8] = Solubility in pH 7-buffered water; format: physicochemical
[9] = Ratio of drug level in erythrocyte to plasma in human; format: ADME; details: erythrocytes and plasma
[10] = Cmax in CD1 mouse at 100 mg/kg, po; format: ADME, organism-based; design: route oral, dose 100 mg/kg; details: in vivo
[11] = Volume of distribution of CD1 mouse at 30 mg/kg, iv; format: ADME, organism-based; details: in vivo
[12] = AUC (0 to infinity) in CD1 mouse at 30 mg/kg, iv; format: ADME, organism-based; design: time infinity, route intravenous, dose 30 mg/kg; details: in vivo
[13] = AUC (0 to infinity) in CD1 mouse at 100 mg/kg, po; format: ADME, organism-based; design: route oral, time infinity, dose 100 mg/kg; details: in vivo
[14] = Oral bioavailability in CD1 mouse at 100 mg/kg; format: ADME, organism-based; details: in vivo
[15] = Oral bioavailability in CD1 mouse at 300 mg/kg; format: ADME, organism-based; details: in vivo
[16] = Drug excretion in Sprague-Dawley rat urine at 10 mg/kg, po using radiolabeled compound measured at 1 hr post dose; format: ADME, organism-based; details: in vivo
[17] = Drug level in Gottingen minipig blood at 10 mg/kg, po using radiolabeled compound measured after 96 hrs by quantitative whole-body autoradiography; format: ADME, organism-based, Sus scrofa domesticus; details: pig, in vivo, BLD = below limit of detection
[18] = Drug level in Gottingen minipig blood at 10 mg/kg, po using radiolabeled compound measured after 72 hrs by quantitative whole-body autoradiography; format: ADME, organism-based, Sus scrofa domesticus; details: pig, in vivo, BLD = below limit of detection
[19] = Drug excretion in Gottingen minipig feces at 10 mg/kg, po using radiolabeled compound by quantitative whole-body autoradiography; format: ADME, organism-based, Sus scrofa domesticus; details: pig, in vivo
[20] = Drug metabolism in Sprague-Dawley rat plasma assessed as HST5040-glucuronide metabolite formation at 10 mg/kg administered as single dose by LC/MS analysis; format: ADME, organism-based; details: in vivo
[21] = Drug metabolism in Sprague-Dawley rat urine assessed as HST5040-carnitine metabolite formation at 10 mg/kg administered as single dose by LC/MS analysis; format: ADME, organism-based; details: in vivo
[22] = Drug metabolism in Gottingen minipig urine assessed as HST5040-glucuronide metabolite formation at 10 mg/kg administered as single dose by LC/MS analysis; format: ADME, organism-based, Sus scrofa domesticus; details: pig, in vivo
[23] = Drug metabolism in Gottingen minipig urine assessed as HST5040-glycine metabolite formation at 10 mg/kg administered as single dose by LC/MS analysis; format: ADME, organism-based, Sus scrofa domesticus; details: pig, in vivo
[24] = target: ATP-dependent translocase ABCB1 (Homo sapiens, UniProt P08183); experiment: Inhibition of human MDR1 assessed as reduction in NMQ transport at 24000 uM relative to control
Bile salt export pump = Bile salt export pump (Homo sapiens, UniProt O95342); experiment: Inhibition of human BSEP assessed as reduction in BSEP-mediated taurocholate transport at 345 uM relative to control
[25] = target: T1, Solute carrier family 22 member 6 (Homo sapiens, UniProt Q4U2R8); experiment: Inhibition of human OAT1 assessed as reduction in OAT1-mediated tenofovir transport
T1 sequence (Q4U2R8 whole entry): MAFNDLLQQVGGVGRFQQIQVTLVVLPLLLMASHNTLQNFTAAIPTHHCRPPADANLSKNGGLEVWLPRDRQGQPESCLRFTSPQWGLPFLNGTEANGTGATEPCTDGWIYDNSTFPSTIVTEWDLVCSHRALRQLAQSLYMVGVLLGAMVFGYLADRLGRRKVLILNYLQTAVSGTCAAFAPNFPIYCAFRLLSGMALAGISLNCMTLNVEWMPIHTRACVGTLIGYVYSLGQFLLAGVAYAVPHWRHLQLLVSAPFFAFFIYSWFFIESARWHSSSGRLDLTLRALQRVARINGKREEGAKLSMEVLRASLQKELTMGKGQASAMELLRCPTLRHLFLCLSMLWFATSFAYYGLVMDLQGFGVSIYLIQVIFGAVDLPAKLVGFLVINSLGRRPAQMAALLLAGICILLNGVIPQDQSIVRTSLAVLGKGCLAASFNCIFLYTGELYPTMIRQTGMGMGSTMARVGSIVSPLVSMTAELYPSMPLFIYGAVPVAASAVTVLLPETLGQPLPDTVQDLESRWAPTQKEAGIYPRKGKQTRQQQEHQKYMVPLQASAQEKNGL

[26] = target: T2, Organic anion transporter 3 (Homo sapiens, UniProt Q8TCC7); experiment: Inhibition of human OAT3 assessed as reduction in OAT3-mediated tenofovir transport
T2 sequence (Q8TCC7 whole entry): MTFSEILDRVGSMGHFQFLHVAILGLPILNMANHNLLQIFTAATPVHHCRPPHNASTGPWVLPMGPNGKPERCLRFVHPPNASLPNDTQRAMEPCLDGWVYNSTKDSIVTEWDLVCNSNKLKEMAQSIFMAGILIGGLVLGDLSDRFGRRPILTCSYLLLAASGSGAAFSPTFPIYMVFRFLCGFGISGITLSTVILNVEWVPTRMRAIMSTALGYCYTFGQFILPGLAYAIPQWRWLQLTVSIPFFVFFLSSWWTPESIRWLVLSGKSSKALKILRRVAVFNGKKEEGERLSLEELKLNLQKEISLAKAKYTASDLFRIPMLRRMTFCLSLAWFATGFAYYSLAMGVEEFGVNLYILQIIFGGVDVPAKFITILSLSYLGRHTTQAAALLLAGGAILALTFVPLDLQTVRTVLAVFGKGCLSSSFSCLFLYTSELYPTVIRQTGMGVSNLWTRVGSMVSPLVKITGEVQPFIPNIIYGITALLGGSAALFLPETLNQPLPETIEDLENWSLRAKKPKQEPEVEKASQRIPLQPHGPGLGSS

[27] = Induction of toxicity in minipig assessed as increase in albumin to […] ratio at 300 mg/kg/day; format: organism-based, Sus scrofa domesticus; details: pig, in vivo
[28] = target: Solute carrier family 22 member 2 (Homo sapiens) (UniProt O15244); experiment: Inhibition of human OCT2 assessed as reduction in OCT2-mediated metformin transport at 14900 uM relative to control
Solute carrier family 22 member 2 (Homo sapiens), sequence (O15244 whole entry, looked up): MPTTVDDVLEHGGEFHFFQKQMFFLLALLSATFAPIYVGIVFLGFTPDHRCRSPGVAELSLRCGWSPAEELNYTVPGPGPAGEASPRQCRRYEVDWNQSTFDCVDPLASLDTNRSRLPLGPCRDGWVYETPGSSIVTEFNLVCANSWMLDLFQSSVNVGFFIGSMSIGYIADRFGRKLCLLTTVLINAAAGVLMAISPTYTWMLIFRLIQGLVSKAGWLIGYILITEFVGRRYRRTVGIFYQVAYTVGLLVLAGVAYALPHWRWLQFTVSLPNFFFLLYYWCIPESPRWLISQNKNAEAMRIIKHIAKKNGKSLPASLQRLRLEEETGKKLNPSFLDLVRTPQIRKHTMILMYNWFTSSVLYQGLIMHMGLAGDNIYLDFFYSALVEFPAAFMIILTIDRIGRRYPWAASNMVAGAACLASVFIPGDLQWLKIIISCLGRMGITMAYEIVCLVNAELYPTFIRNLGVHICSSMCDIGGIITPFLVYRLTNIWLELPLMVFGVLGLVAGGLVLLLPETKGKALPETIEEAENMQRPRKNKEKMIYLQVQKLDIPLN

Bile salt export pump, sequence (O95342 whole entry): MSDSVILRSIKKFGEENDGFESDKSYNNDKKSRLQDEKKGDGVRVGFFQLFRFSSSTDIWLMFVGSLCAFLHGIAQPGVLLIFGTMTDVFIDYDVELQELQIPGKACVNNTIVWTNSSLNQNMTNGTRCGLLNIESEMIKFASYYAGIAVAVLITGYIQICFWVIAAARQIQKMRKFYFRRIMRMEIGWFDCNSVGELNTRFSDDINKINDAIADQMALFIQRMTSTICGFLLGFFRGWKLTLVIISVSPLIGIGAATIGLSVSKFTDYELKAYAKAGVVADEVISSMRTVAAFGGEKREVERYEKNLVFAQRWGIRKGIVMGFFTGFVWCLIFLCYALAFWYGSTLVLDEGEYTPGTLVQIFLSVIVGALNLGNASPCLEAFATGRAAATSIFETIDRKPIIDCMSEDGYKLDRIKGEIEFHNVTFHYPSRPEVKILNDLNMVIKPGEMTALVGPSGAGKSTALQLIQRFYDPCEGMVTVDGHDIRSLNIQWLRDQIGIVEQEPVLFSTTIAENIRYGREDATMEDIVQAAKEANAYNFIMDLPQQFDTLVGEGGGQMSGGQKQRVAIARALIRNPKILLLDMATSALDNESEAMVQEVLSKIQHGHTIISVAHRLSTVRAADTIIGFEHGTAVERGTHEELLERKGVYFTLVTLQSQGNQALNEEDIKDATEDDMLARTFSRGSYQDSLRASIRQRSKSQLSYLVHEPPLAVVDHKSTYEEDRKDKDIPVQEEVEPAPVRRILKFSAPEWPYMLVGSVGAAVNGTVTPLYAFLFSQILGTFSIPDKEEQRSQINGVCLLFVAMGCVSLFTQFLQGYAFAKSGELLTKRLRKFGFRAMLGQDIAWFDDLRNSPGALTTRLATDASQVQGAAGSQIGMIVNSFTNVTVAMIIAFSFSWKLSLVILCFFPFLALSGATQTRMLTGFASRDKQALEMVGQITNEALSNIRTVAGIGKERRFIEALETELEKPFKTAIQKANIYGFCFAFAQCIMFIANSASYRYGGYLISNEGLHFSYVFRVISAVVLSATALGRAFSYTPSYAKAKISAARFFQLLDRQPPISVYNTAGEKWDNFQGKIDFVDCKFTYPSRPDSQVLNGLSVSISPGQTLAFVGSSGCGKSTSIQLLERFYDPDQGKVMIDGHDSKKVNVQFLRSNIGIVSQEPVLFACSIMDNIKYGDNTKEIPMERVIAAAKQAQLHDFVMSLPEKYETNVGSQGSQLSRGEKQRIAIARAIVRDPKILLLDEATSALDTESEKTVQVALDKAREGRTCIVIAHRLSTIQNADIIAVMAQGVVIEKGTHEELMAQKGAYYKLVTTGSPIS
ATP-dependent translocase ABCB1, sequence (P08183 whole entry): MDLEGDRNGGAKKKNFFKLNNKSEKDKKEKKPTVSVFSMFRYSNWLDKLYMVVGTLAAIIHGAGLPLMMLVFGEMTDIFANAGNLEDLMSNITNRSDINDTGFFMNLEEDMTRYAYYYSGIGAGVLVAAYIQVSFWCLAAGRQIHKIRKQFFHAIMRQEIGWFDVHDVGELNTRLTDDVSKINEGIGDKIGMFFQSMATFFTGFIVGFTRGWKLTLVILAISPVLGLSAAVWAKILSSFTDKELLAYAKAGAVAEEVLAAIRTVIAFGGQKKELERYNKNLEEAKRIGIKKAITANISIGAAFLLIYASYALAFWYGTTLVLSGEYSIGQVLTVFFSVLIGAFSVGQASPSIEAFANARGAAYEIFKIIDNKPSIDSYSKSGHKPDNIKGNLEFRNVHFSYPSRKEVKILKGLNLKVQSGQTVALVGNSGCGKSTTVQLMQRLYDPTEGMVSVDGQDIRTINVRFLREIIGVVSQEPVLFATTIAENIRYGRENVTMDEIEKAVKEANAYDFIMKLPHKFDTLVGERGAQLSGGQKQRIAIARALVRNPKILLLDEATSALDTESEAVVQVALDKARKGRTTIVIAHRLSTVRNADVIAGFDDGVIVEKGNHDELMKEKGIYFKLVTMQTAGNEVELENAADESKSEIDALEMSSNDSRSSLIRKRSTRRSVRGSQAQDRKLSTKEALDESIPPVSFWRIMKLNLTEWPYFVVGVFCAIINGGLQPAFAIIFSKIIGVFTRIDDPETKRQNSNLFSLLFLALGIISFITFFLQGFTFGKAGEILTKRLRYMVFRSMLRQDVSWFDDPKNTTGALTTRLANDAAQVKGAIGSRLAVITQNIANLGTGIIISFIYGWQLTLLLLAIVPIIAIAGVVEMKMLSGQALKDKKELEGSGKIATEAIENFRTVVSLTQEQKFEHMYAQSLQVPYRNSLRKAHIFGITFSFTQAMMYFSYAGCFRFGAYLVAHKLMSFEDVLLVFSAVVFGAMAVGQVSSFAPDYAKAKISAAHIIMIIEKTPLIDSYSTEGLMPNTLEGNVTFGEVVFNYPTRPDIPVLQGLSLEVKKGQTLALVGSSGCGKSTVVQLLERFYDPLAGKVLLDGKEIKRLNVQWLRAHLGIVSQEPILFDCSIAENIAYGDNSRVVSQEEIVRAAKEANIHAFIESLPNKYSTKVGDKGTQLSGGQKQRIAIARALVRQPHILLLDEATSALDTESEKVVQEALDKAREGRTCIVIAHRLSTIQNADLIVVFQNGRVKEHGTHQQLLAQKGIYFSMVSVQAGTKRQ

Q: With `CCC(C)(C)C(=O)O` [DIMEBUTIC ACID] as the molecule, how does the EC50 [1] read?
A: 4.8 µM

Q: And the Activity [2]?
A: 54%

Q: And the Activity [3]?
A: 44.6%

Q: And the EC50 [4]?
A: 1.1 µM

Q: What about the Activity [5] of the same molecule?
A: -66.7%

Q: And the EC50 [6]?
A: 8.3 µM

Q: And the EC50 [7]?
A: 60 µM

Q: And the solubility [8]?
A: > 50 mg/mL

Q: What about the Kp [9] of the same molecule?
A: 0.343

Q: What about the Cmax [10] of the same molecule?
A: 118 µg/mL

Q: What about the Vd [11] of the same molecule?
A: 0.469 L/kg

Q: And the AUC(0-inf) [12]?
A: 70.2 µg·h/mL

Q: What about the AUC(0-inf) [13] of the same molecule?
A: 219 µg·h/mL

Q: And the bioavailability [14]?
A: 93.3%

Q: What about the F [15] of the same molecule?
A: 177.5%

Q: What about the Drug excretion [16] of the same molecule?
A: 72%

Q: What about the Drug uptake [17] of the same molecule?
A: Bld

Q: What about the Drug uptake [18] of the same molecule?
A: Bld

Q: What about the Drug excretion [19] of the same molecule?
A: 2.26%

Q: What about the Drug metabolism [20] of the same molecule?
A: Metabolite_Detected

Q: What about the Drug metabolism [21] of the same molecule?
A: Metabolite_Detected

Q: And the Drug metabolism [22]?
A: Metabolite_Detected

Q: What about the Drug metabolism [23] of the same molecule?
A: Metabolite_Detected

Q: What about the “inhibition (INH)” value [24] of the same molecule?
A: Not Active

Q: What about the “inhibition (INH)” value (Bile salt export pump) of the same molecule?
A: Not Active

Q: And the IC50 [25]?
A: 3860 µM

Q: And the IC50 [26]?
A: 3510 µM

Q: And the Activity [27]?
A: Toxic

Q: What about the inhibition [28] of the same molecule?
A: inactive
